Literature values in PubChem BioAssay AID1259409 (Chemical Carcinogenesis Research Information System (CCRIS), 2018).

Tested on: rodent chemically induced tumor inhibition, incidence and multiplicity
Experiment: CCRIS tumor inhibitor studies
Conditions: Promoter: NONE USED

## C[C@]12CC[C@H](O)CC1=CC[C@@H]1[C@@H]2CC[C@]2(C)C(=O)CC[C@@H]12
Carcinogen: 1,2-DIMETHYLHYDRAZINE, 540-73-8, Dose [Inhibitor]: 0.6% IN DIET BEGINNING 2 WK PRIOR TO 1ST CARCINOGEN DOSE FOR DURATION OF EXPERIMENT (STUDY DURATION: 42 WK), Route [Inhibitor]: ORAL, Species: MOUSE, Strain/Sex: BALB/C/FEMALE, Target Tissue: Type of Lesion: ANUS: SQUAMOUS CELL CARCINOMA, FIBROSARCOMA, Dose [Carcinogen]: 21 MG/KG 1/WK FOR 20 WK
  tumour outcome (control, treated, inhibition, significance): 38%, 50%, -32%, not calculated
Carcinogen: 1,2-DIMETHYLHYDRAZINE, 540-73-8, Dose [Inhibitor]: 0.6% IN DIET BEGINNING 2 WK PRIOR TO 1ST CARCINOGEN DOSE FOR DURATION OF EXPERIMENT (STUDY DURATION: 42 WK), Route [Inhibitor]: ORAL, Species: MOUSE, Strain/Sex: BALB/FEMALE, Target Tissue: Type of Lesion: ANUS: SQUAMOUS CELL CARCINOMA, FIBROSARCOMA, Dose [Carcinogen]: 21 MG/KG 1/WK FOR 20 WK
  tumour outcome (control, treated, inhibition, significance): 26/151 (17%), 0/141 (0%), 100%, p<0.001
Carcinogen: 7,12-DIMETHYLBENZ[A]ANTHRACENE, 57-97-6, Dose [Inhibitor]: 0.6% IN DIET BEGINNING 9 D POST CARCINOGEN DOSE (STUDY DURATION: 14 WK AFTER AGENT TREATMENT), Route [Inhibitor]: ORAL, Species: MOUSE, Strain/Sex: STRAIN-A/FEMALE, Target Tissue: Type of Lesion: LUNG: TUMOR, Dose [Carcinogen]: 0.5 MG IN 0.2 ML SESAME OIL ONCE
  tumour outcome (control, treated, inhibition, significance): 28/28 (100%), 20/23 (87%), 13%, not calculated
Carcinogen: 7,12-DIMETHYLBENZ[A]ANTHRACENE, 57-97-6, Dose [Inhibitor]: 100 UG IN 0.2 ML ACETONE 1 HR PRIOR TO EACH CARCINOGEN DOSE (STUDY DURATION: 290 D), Route [Inhibitor]: DERMAL, Species: MOUSE, Strain/Sex: CD-1/FEMALE, Target Tissue: Type of Lesion: SKIN: CARCINOMA, Dose [Carcinogen]: 200 NMOL AT 6-7 WK OF AGE THEN 100 NMOL 1/WK 2 WK LATER
  tumour outcome (control, treated, inhibition, significance): 14/28 (50%), 5/26 (19%), 62%, p<0.001
Carcinogen: 7,12-DIMETHYLBENZ[A]ANTHRACENE, 57-97-6, Dose [Inhibitor]: 400 UG IN 0.2 ML ACETONE 1 HR PRIOR TO EACH CARCINOGEN DOSE (STUDY DURATION: 290 D), Route [Inhibitor]: DERMAL, Species: MOUSE, Strain/Sex: CD-1/FEMALE, Target Tissue: Type of Lesion: SKIN: CARCINOMA, Dose [Carcinogen]: 200 NMOL AT 6-7 WK OF AGE THEN 100 NMOL 1/WK 2 WK LATER
  tumour outcome (control, treated, inhibition, significance): 14/28 (50%), 3/27 (11%), 78%, p<0.001
Carcinogen: AZOXYMETHANE, 25843-45-2, Dose [Inhibitor]: 0, 0.5% DIET BEGINNING 1 DAY AFTER LAST CARCINOGEN DOSE AND CONTINUING FOR DURATION OF STUDY (STUDY DURATION: 18 WK), Route [Inhibitor]: ORAL, Species: RAT, Strain/Sex: F344/MALE, Target Tissue: Type of Lesion: COLON: TUMOR, Dose [Carcinogen]: 10 MG/KG 1/WK FOR 10 WK
  tumour outcome (control, treated, inhibition, significance): 10/15 (67%), 7/15 (47%), 30%, not significant
Carcinogen: AZOXYMETHANE, 25843-45-2, Dose [Inhibitor]: 0, 0.5% DIET BEGINNING 1 DAY AFTER LAST CARCINOGEN DOSE AND CONTINUING FOR DURATION OF STUDY (STUDY DURATION: 18 WK), Route [Inhibitor]: ORAL, Species: RAT, Strain/Sex: F344/MALE, Target Tissue: Type of Lesion: SMALL INTESTINE: TUMOR, Dose [Carcinogen]: 10 MG/KG 1/WK FOR 10 WK
  tumour outcome (control, treated, inhibition, significance): 10/15 (67%), 8/15 (53%), 21%, not significant
